ChEMBL document CHEMBL6127035, “Novel pyridazinone derivatives bind to KSRP: Synthesis, anti-tumor biological evaluations and modelling insights” (Eur J Med Chem, 2024)
Activity calls are given as the source filed them. The calls are words filed in the database; no cut-off is given here.

Tests used:
MCF7 [1] = experiment: Induction of morphological changes in human MCF7 cells assessed as cell membrane blebbing at 10 uM measured after 6 hrs by bright field microscopic; assay type: functional, cell-based
MCF7 [2] = experiment: Induction of apoptosis in human MCF7 cells assessed as viable cells at 2.5 uM incubated for 48 hrs by Annexin V-FITC/PI staining based flow cytometric analysis (reference value: 87.2 %); assay type: functional; conditions: read-out: Activity
MCF7 [3] = experiment: Antitumor activity against human MCF7 cells xenografted in BALB/C-nu/nu mouse model assessed as decrease in tumor weight at 30 mg/kg, iv administered every other day for 15 days relative to control; assay type: functional; design: scale not given: the % may be the effect or the level left; conditions: time 15 day
MDA-MB-231 [4] = experiment: Inhibition of cell migration in human MDA-MB-231 cells assessed as reduction in wound healing index measured after 72 hrs by scratch assay; assay type: functional, cell-based
[5] = target: T1, Far upstream element-binding protein 2 (Homo sapiens) (UniProt Q92945); experiment: Binding affinity to recombinant full-length KSRP (unknown origin) by SPR analysis
T1 sequence (whole entry): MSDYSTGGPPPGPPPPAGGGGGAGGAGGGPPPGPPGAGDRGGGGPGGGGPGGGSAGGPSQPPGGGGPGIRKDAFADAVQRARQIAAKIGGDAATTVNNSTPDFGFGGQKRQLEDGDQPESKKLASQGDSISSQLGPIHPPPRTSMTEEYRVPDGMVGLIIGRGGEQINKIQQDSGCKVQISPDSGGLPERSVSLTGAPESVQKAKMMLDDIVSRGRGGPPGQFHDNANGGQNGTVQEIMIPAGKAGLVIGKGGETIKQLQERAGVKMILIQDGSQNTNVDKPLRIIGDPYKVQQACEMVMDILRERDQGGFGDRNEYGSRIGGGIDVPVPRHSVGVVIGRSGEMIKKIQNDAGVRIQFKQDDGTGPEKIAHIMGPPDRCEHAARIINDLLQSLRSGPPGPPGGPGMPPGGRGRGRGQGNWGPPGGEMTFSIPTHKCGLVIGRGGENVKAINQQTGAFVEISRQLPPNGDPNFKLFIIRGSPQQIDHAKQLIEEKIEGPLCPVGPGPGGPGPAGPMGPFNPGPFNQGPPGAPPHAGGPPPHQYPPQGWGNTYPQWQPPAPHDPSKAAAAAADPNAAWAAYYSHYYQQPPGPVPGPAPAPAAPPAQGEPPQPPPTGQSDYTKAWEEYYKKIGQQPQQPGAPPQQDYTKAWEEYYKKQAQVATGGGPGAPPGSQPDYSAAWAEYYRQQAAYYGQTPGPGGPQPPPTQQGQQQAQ

4T1 = experiment: Antiproliferative activity against mouse 4T1 cells assessed as reduction in cell viability incubated for 2 days by MTT assay; assay type: functional, cell-based; conditions: 4T1, 48 h
NCI-H460 = experiment: Antiproliferative activity against human NCI-H460 cells assessed as reduction in cell viability incubated for 2 days by MTT assay; assay type: functional, cell-based; conditions: NCI-H460, 48 h
MCF7 [6] = experiment: Induction of DNA double-strand breaks in human MCF7 cells assessed as increase in gamma-H2AX expression incubated for 24 hrs by Western blotting; assay type: functional, cell-based
HCT-116 = experiment: Antiproliferative activity against human HCT-116 cells assessed as reduction in cell viability incubated for 2 days by MTT assay; assay type: functional, cell-based; conditions: HCT-116, 48 h
[7] = Acute toxicity in BALB/c nu/nu mouse assessed as survival rate at 100 mg/kg, ip administered for 7 days relative to control; assay type: organism-based; conditions: in vivo, time 7 day
MCF7 [8] = experiment: Induction of apoptosis in human MCF7 cells assessed as late apoptotic cells at 2.5 uM incubated for 48 hrs by Annexin V-FITC/PI staining based flow cytometric analysis (reference value: 5.31 %); assay type: functional
KB = experiment: Antiproliferative activity against human KB cells assessed as reduction in cell viability incubated for 2 days by MTT assay; assay type: functional, cell-based; conditions: 48 h
MCF7 [9] = experiment: Induction of DNA double-strand breaks in human MCF7 cells assessed as appearance of nuclear fragments at 10 uM incubated for 24 hrs by Hoechst 33342 staining based fluorescence microscopic analysis; assay type: functional, cell-based
Mitochondrial membrane = experiment: Induction of mitochondrial membrane potential loss in human MCF7 cells assessed as increase in green fluorescence at 10 uM incubated for 24 hrs by JC-1 staining based automated microscopic immunofluorescence analysis; assay type: cell membranes
MCF7 [10] = experiment: Inhibition of colony formation in human MCF7 cells assessed as reduction in colony count incubated for 2 weeks by crystal violet staining based analysis; assay type: functional, cell-based; conditions: dose 1.25-2.5 µM
MCF7 [11] = experiment: Induction of cell cycle arrest in human MCF7 cells assessed as accumulation of cells at G2/M phase cells at 5 uM incubated for 24 hrs by PI staining based flow cytometric analysis (reference value: 10.2 %); assay type: functional
MDA-MB-231 [12] = experiment: Inhibition of colony formation in human MDA-MB-231 cells assessed as reduction in colony count incubated for 2 weeks by crystal violet staining based analysis; assay type: functional, cell-based
MCF7 [13] = experiment: Induction of apoptosis in human MCF7 cells assessed as necrotic cells at 0.62 uM incubated for 48 hrs by Annexin V-FITC/PI staining based flow cytometric analysis (reference value: 1.16 %); assay type: functional
[14] = Acute toxicity in BALB/c nu/nu mouse assessed as survival rate at 90 mg/kg, ip administered for 7 days relative to control; assay type: organism-based; conditions: in vivo, time 7 day
MCF7 [15] = experiment: Antitumor activity against human MCF7 cells xenografted in BALB/C-nu/nu mouse model assessed as decrease in tumor weight at 20 mg/kg, iv administered every other day for 15 days relative to control; assay type: functional; design: scale not given: the % may be the effect or the level left; conditions: time 15 day
MCF7 [16] = experiment: Induction of ROS accumulation in human MCF7 cells assessed as increase in green fluorescence at 5 uM incubated for 24 hrs by DCFH-DA staining based automated microscopic immunofluorescence analysis; assay type: functional, cell-based
MCF7 [17] = experiment: Induction of apoptosis in human MCF7 cells assessed as early apoptotic cells at 0.62 uM incubated for 48 hrs by Annexin V-FITC/PI staining based flow cytometric analysis (reference value: 6.33 %); assay type: functional
MCF7 [18] = experiment: Induction of cell cycle arrest in human MCF7 cells assessed as decrease in G0/G1 phase cells at 5 uM incubated for 24 hrs by PI staining based flow cytometric analysis; assay type: functional

With `CN(CCO)S(=O)(=O)c1ccc(-n2ncc(Cl)c(Cl)c2=O)cc1` the Activity (MCF7 [1]) was “Active”, the viability at 2.5 µM (MCF7 [2]) was 39.5% and the Activity (MCF7 [3]) was 74.2%. For the same compound, the inhibition (MDA-MB-231 [4]) was “Active”, the Activity [5] was “Dose-Dependent Effect” and the IC50 (4T1) was 1.23 µM. The IC50 (NCI-H460) was 1.02 µM, the Activity (MCF7 [6]) was “Dose-Dependent Effect” and the IC50 (HCT-116) was 0.78 µM. For the same compound, the survival at 168 h [7] was 80%, the Activity (MCF7 [8]) was 31% and the IC50 (KB) was 0.38 µM. The Activity (MCF7 [9]) was “Active”, the Activity (Mitochondrial membrane) was “Active” and the inhibition (MCF7 [10]) was “Dose-Dependent Effect”. For the same compound, the Activity (MCF7 [11]) was 19.9%, the inhibition (MDA-MB-231 [12]) was “Active” and the Activity (MCF7 [13]) was 1.3%. The survival at 168 h [14] was 100%, the Activity (MCF7 [15]) was 44.6% and the Activity (MCF7 [16]) was “Active”. For the same compound, the Activity (MCF7 [17]) was 7.62% and the Activity (MCF7 [18]) was “Active”.
